Laboratory results published in ChEMBL document CHEMBL1909294, “Translating clinical findings into knowledge in drug safety evaluation--drug induced liver injury prediction system (DILIps)” (PLoS Comput Biol, 2011).
Where a SMILES comes first, the peptide text is derived from it. Bridges are numbered along the chain shown (N, C = ends). [ ]: non-standard residue; d: D form. hArg = N=C(N)NCCCC[C@H](N)C(=O)O; Mpa = O=C(O)CCS

How the values were obtained:
[1] = test system: Hepatotoxicity;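 on HepSE bilirubinemia: bilirubinemia hepatic side effect score drawn from the DILIps training data, a prediction system for drug-induced liver injury; call rule not given here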;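 on HepSE cholecystitis: Cholecystitis-related hepatic side effect score drawn from the DILIps (drug-induced liver injury prediction) training data set; call rule not given here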;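 on HepSE cholelithiasis: hepatic side effect score for cholelithiasis, drawn from the DILIps training data for predicting drug-induced liver injury; call rule not given here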; on HepSE hepatic failure: call rule not given here;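 on HepSE hepatomegaly: hepatic side effect score for hepatomegaly, taken from the training set of the DILIps drug-induced liver injury prediction system; call rule not given here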; on HepSE liver disease: call rule not given here;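 on HepSE liver function tests abnormal: hepatic side effect score taken from the DILIps (drug-induced liver injury prediction system) training data, here covering abnormal liver function test findings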
[2] = test system: Hepatotoxicity; remark: listed apart in the source;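 on HepSE bilirubinemia: bilirubinemia hepatic side effect score drawn from the DILIps training data, a prediction system for drug-induced liver injury; call rule not given here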;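 on HepSE cholecystitis: Cholecystitis-related hepatic side effect score drawn from the DILIps (drug-induced liver injury prediction) training data set; call rule not given here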;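 on HepSE cholelithiasis: hepatic side effect score for cholelithiasis, drawn from the DILIps training data for predicting drug-induced liver injury; call rule not given here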; on HepSE hepatic failure: call rule not given here;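 on HepSE hepatomegaly: hepatic side effect score for hepatomegaly, taken from the training set of the DILIps drug-induced liver injury prediction system; call rule not given here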; on HepSE liver disease: call rule not given here;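 on HepSE liver function tests abnormal: hepatic side effect score taken from the DILIps (drug-induced liver injury prediction system) training data, here covering abnormal liver function test findings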
[3] = test system: Hepatotoxicity; remark: listed apart in the source;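 on HepSE bilirubinemia: bilirubinemia hepatic side effect score drawn from the DILIps training data, a prediction system for drug-induced liver injury; call rule not given here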;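 on HepSE cholecystitis: Cholecystitis-related hepatic side effect score drawn from the DILIps (drug-induced liver injury prediction) training data set; call rule not given here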;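 on HepSE cholelithiasis: hepatic side effect score for cholelithiasis, drawn from the DILIps training data for predicting drug-induced liver injury; call rule not given here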; on HepSE hepatic failure: call rule not given here;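 on HepSE hepatomegaly: hepatic side effect score for hepatomegaly, taken from the training set of the DILIps drug-induced liver injury prediction system; call rule not given here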; on HepSE liver disease: call rule not given here;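 on HepSE liver function tests abnormal: hepatic side effect score taken from the DILIps (drug-induced liver injury prediction system) training data, here covering abnormal liver function test findings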
[4] = test system: Hepatotoxicity; remark: listed apart in the source;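 on HepSE bilirubinemia: bilirubinemia hepatic side effect score drawn from the DILIps training data, a prediction system for drug-induced liver injury; call rule not given here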;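 on HepSE cholecystitis: Cholecystitis-related hepatic side effect score drawn from the DILIps (drug-induced liver injury prediction) training data set; call rule not given here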;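 on HepSE cholelithiasis: hepatic side effect score for cholelithiasis, drawn from the DILIps training data for predicting drug-induced liver injury; call rule not given here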; on HepSE hepatic failure: call rule not given here;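 on HepSE hepatomegaly: hepatic side effect score for hepatomegaly, taken from the training set of the DILIps drug-induced liver injury prediction system; call rule not given here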; on HepSE liver disease: call rule not given here
[5] = test system: Hepatotoxicity; remark: listed apart in the source; on HepSE hepatic failure: call rule not given here; on HepSE liver disease: call rule not given here
[6] = test system: Hepatotoxicity; remark: listed apart in the source; on HepSE hepatic failure: call rule not given here; on HepSE liver disease: call rule not given here
[7] = test system: Hepatotoxicity; remark: listed apart in the source
[8] = test system: Hepatotoxicity; remark: listed apart in the source
[9] = test system: Hepatotoxicity; remark: listed apart in the source
[10] = test system: Hepatotoxicity; remark: listed apart in the source
[11] = test system: Hepatotoxicity; remark: listed apart in the source
[12] = test system: Hepatotoxicity; remark: listed apart in the source
[13] = test system: Hepatotoxicity; remark: listed apart in the source
[14] = test system: Hepatotoxicity; remark: listed apart in the source

Work on `COC(=O)[C@@H]1CC2=CC(=O)CC[C@]2(C)[C@@]23O[C@@H]2C[C@@]2(C)[C@@H](CC[C@@]24CCC(=O)O4)[C@H]13` [EPLERENONE] yielded a HepSE_cholecystitis [1] of 0, a HepSE_hepatic failure [2] of 1 and a HepSE_cholelithiasis [3] of 0. For the same compound, the HepSE_bilirubinemia [4] was 0, the HepSE_liver disease [5] was 0 and the HepSE_hepatitis [6] was 0. The HepSE_hepatomegaly [7] was 0, the “HepSE_liver function tests abnormal” value [8] was 0 and the HepSE_cirrhosis [9] was 0. For the same compound, the “HepSE_elevated liver function tests” value [10] was 0, the “HepSE_Combined Scores” value [11] was 1 and the HepSE_jaundice [12] was 0. The HepSE_liver fatty [13] was 0 and the HepSE_hepatic necrosis [14] was 0.
Compound `CCCCC[C@H](O)/C=C/[C@@H]1[C@H]2C/C(=C/CCCC(=O)O)O[C@H]2C[C@H]1O` [EPOPROSTENOL] has a HepSE_cholecystitis [1] of 0, a HepSE_hepatic failure [2] of 1 and a HepSE_cholelithiasis [3] of 0. The HepSE_bilirubinemia [4] was 0, the HepSE_liver disease [5] was 0 and the HepSE_hepatitis [6] was 0. The HepSE_hepatomegaly [7] was 0, the “HepSE_liver function tests abnormal” value [8] was 0 and the HepSE_cirrhosis [9] was 0. The “HepSE_elevated liver function tests” value [10] was 0, the “HepSE_Combined Scores” value [11] was 1 and the HepSE_jaundice [12] was 0. It also gave a HepSE_liver fatty [13] of 0 and a HepSE_hepatic necrosis [14] of 0.
`CCCCc1ncc(/C=C(\Cc2cccs2)C(=O)O)n1Cc1ccc(C(=O)O)cc1` [EPROSARTAN] showed a HepSE_cholecystitis [1] of 0, a HepSE_hepatic failure [2] of 0 and a HepSE_cholelithiasis [3] of 0. For the same compound, the HepSE_bilirubinemia [4] was 0, the HepSE_liver disease [5] was 0 and the HepSE_hepatitis [6] was 0. For the same compound, the HepSE_hepatomegaly [7] was 0, the “HepSE_liver function tests abnormal” value [8] was 0 and the HepSE_cirrhosis [9] was 0. For the same compound, the “HepSE_elevated liver function tests” value [10] was 0, the “HepSE_Combined Scores” value [11] was 0 and the HepSE_jaundice [12] was 0. The HepSE_liver fatty [13] was 0 and the HepSE_hepatic necrosis [14] was 0.
With `N=C(N)NCCCC[C@@H]1NC(=O)CCSSC[C@@H](C(N)=O)NC(=O)[C@@H]2CCCN2C(=O)[C@H](Cc2c[nH]c3ccccc23)NC(=O)[C@H](CC(=O)O)NC(=O)CNC1=O` [EPTIFIBATIDE] ([Mpa][hArg]GDWPC-NH2; disulfide 1-7) the HepSE_cholecystitis [1] was 0, the HepSE_hepatic failure [2] was 0 and the HepSE_cholelithiasis [3] was 0. It also gave a HepSE_bilirubinemia [4] of 0, a HepSE_liver disease [5] of 0 and a HepSE_hepatitis [6] of 0. The HepSE_hepatomegaly [7] was 0, the “HepSE_liver function tests abnormal” value [8] was 0 and the HepSE_cirrhosis [9] was 0. For the same compound, the “HepSE_elevated liver function tests” value [10] was 0, the “HepSE_Combined Scores” value [11] was 0 and the HepSE_jaundice [12] was 0. The HepSE_liver fatty [13] was 0 and the HepSE_hepatic necrosis [14] was 0.
`CN1C[C@H](C(=O)N[C@]2(C)O[C@@]3(O)[C@@H]4CCCN4C(=O)[C@H](Cc4ccccc4)N3C2=O)C=C2c3cccc4[nH]cc(c34)C[C@H]21` [ERGOTAMINE] gave a HepSE_cholecystitis [1] of 0, a HepSE_hepatic failure [2] of 0 and a HepSE_cholelithiasis [3] of 0. It also gave a HepSE_bilirubinemia [4] of 0, a HepSE_liver disease [5] of 0 and a HepSE_hepatitis [6] of 0. For the same compound, the HepSE_hepatomegaly [7] was 0, the “HepSE_liver function tests abnormal” value [8] was 0 and the HepSE_cirrhosis [9] was 0. The “HepSE_elevated liver function tests” value [10] was 0, the “HepSE_Combined Scores” value [11] was 0 and the HepSE_jaundice [12] was 0. The HepSE_liver fatty [13] was 0 and the HepSE_hepatic necrosis [14] was 0.
With `C#Cc1cccc(Nc2ncnc3cc(OCCOC)c(OCCOC)cc23)c1` [ERLOTINIB] the HepSE_cholecystitis [1] was 0, the HepSE_hepatic failure [2] was 1 and the HepSE_cholelithiasis [3] was 0. The HepSE_bilirubinemia [4] was 0, the HepSE_liver disease [5] was 1 and the HepSE_hepatitis [6] was 0. The HepSE_hepatomegaly [7] was 0, the “HepSE_liver function tests abnormal” value [8] was 0 and the HepSE_cirrhosis [9] was 0. For the same compound, the “HepSE_elevated liver function tests” value [10] was 0, the “HepSE_Combined Scores” value [11] was 2 and the HepSE_jaundice [12] was 0. It also gave a HepSE_liver fatty [13] of 0 and a HepSE_hepatic necrosis [14] of 0.
Compound `CC[C@H]1OC(=O)[C@H](C)[C@@H](O[C@H]2C[C@@](C)(OC)[C@@H](O)[C@H](C)O2)[C@H](C)[C@@H](O[C@@H]2O[C@H](C)C[C@H](N(C)C)[C@H]2O)[C@](C)(O)C[C@@H](C)C(=O)[C@H](C)[C@@H](O)[C@]1(C)O` [ERYTHROMYCIN] has a HepSE_cholecystitis [1] of 0, a HepSE_hepatic failure [2] of 0 and a HepSE_cholelithiasis [3] of 0. The HepSE_bilirubinemia [4] was 0, the HepSE_liver disease [5] was 0 and the HepSE_hepatitis [6] was 1. For the same compound, the HepSE_hepatomegaly [7] was 0, the “HepSE_liver function tests abnormal” value [8] was 0 and the HepSE_cirrhosis [9] was 0. For the same compound, the “HepSE_elevated liver function tests” value [10] was 0, the “HepSE_Combined Scores” value [11] was 1 and the HepSE_jaundice [12] was 0. It also gave a HepSE_liver fatty [13] of 0 and a HepSE_hepatic necrosis [14] of 0.
With `COC(=O)CCc1ccc(OCC(O)CNC(C)C)cc1` (stereo not drawn) [ESMOLOL] the HepSE_cholecystitis [1] was 0, the HepSE_hepatic failure [2] was 0 and the HepSE_cholelithiasis [3] was 0. For the same compound, the HepSE_bilirubinemia [4] was 0, the HepSE_liver disease [5] was 0 and the HepSE_hepatitis [6] was 0. For the same compound, the HepSE_hepatomegaly [7] was 0, the “HepSE_liver function tests abnormal” value [8] was 0 and the HepSE_cirrhosis [9] was 0. For the same compound, the “HepSE_elevated liver function tests” value [10] was 0, the “HepSE_Combined Scores” value [11] was 0 and the HepSE_jaundice [12] was 0. The HepSE_liver fatty [13] was 0 and the HepSE_hepatic necrosis [14] was 0.
For `Clc1ccc2c(c1)C(c1ccccc1)=NCc1nncn1-2` [ESTAZOLAM], the HepSE_cholecystitis [1] was 0, the HepSE_hepatic failure [2] was 0 and the HepSE_cholelithiasis [3] was 0. The HepSE_bilirubinemia [4] was 0, the HepSE_liver disease [5] was 0 and the HepSE_hepatitis [6] was 0. The HepSE_hepatomegaly [7] was 0, the “HepSE_liver function tests abnormal” value [8] was 0 and the HepSE_cirrhosis [9] was 0. For the same compound, the “HepSE_elevated liver function tests” value [10] was 0, the “HepSE_Combined Scores” value [11] was 0 and the HepSE_jaundice [12] was 0. For the same compound, the HepSE_liver fatty [13] was 0 and the HepSE_hepatic necrosis [14] was 0.
`C[C@]12CC[C@@H]3c4ccc(O)cc4CC[C@H]3[C@@H]1CC[C@@H]2O` [ESTRADIOL] gave a HepSE_cholecystitis [1] of 0, a HepSE_hepatic failure [2] of 0 and a HepSE_cholelithiasis [3] of 0. The HepSE_bilirubinemia [4] was 0, the HepSE_liver disease [5] was 0 and the HepSE_hepatitis [6] was 1. For the same compound, the HepSE_hepatomegaly [7] was 0, the “HepSE_liver function tests abnormal” value [8] was 0 and the HepSE_cirrhosis [9] was 0. For the same compound, the “HepSE_elevated liver function tests” value [10] was 1, the “HepSE_Combined Scores” value [11] was 3 and the HepSE_jaundice [12] was 1. It also gave a HepSE_liver fatty [13] of 0 and a HepSE_hepatic necrosis [14] of 0.
Work on `C[C@]12CC[C@@H]3c4ccc(OC(=O)N(CCCl)CCCl)cc4CC[C@H]3[C@@H]1CC[C@@H]2O` [ESTRAMUSTINE] yielded a HepSE_cholecystitis [1] of 0, a HepSE_hepatic failure [2] of 0 and a HepSE_cholelithiasis [3] of 0. For the same compound, the HepSE_bilirubinemia [4] was 0, the HepSE_liver disease [5] was 0 and the HepSE_hepatitis [6] was 0. For the same compound, the HepSE_hepatomegaly [7] was 0, the “HepSE_liver function tests abnormal” value [8] was 0 and the HepSE_cirrhosis [9] was 0. For the same compound, the “HepSE_elevated liver function tests” value [10] was 0, the “HepSE_Combined Scores” value [11] was 0 and the HepSE_jaundice [12] was 0. It also gave a HepSE_liver fatty [13] of 0 and a HepSE_hepatic necrosis [14] of 0.
In the case of `CC#C[C@]1(O)CC[C@H]2[C@@H]3CCc4cc(O)ccc4[C@H]3CC[C@@]21C` [ESTROGEN], the HepSE_cholecystitis [1] is reported as 0, the HepSE_hepatic failure [2] is reported as 0 and the HepSE_cholelithiasis [3] is reported as 0. It also gave a HepSE_bilirubinemia [4] of 0, a HepSE_liver disease [5] of 0 and a HepSE_hepatitis [6] of 0. For the same compound, the HepSE_hepatomegaly [7] was 0, the “HepSE_liver function tests abnormal” value [8] was 0 and the HepSE_cirrhosis [9] was 0. The “HepSE_elevated liver function tests” value [10] was 0, the “HepSE_Combined Scores” value [11] was 1 and the HepSE_jaundice [12] was 1. It also gave a HepSE_liver fatty [13] of 0 and a HepSE_hepatic necrosis [14] of 0.
